# In article PMC12267067, “Targeting GRPR for sex hormone-dependent cancer after loss of E-cadherin” (Nature, 2025):
# No end group written: not given here.
# Key:
# [1] = test system: YAP1 activation signature; experiment: YAP1 activation signature (GSEA) and Yap1 score by RNA-seq, murine melanoma cell lines; assay type: cell-based, mouse; conditions: 4 h, 10 nM GRP
# Experimental: The transcriptome, copy-number alteration, mutations and corresponding clinical data of the TCGA–SKCM (n = 473), TCGA–BRCA (n = 1,215), TCGA–STAD (n = 450), TCGA–LUSC (n = 553) and TCGA–KIRC (n = 606) datasets were retrieved from the National Cancer Institute Genomic Data Commons repository using the TCGAbiolinks R package in August 2022 (ref. [51]). The mRNA levels were calculated from RNA-sequencing read counts using RNA-Seq V2 RSEM and normalized to TPM. Expression of CDH1, CCND1, BRAF and KRAS was modelled over time using LOWESS smoothing with 1,860 points. Expression levels from acral melanoma were retrieved from GEO under accession number GSE162682. Survival analyses were carried out by separating the cohort into two groups according to gene expression. The threshold was set to 1 TPM, commonly considered to be the limit for sufficient protein expression of the transcript. The negative group was set to an expression 0.1 TPM or less to have clear separation in terms of expression (factor 10) from the positive group. The YAP and melanoma phenotypic state scores were obtained by averaging the expression of detailed marker genes, or for the mice, from their murine orthologues as described in ref. [52]. The pigmentation state was defined by the expression of MITF, MLANA, TRPM1, DCT and TYR; the starved-like melanoma cell phenotype by the expression of CD36, DLX5, IP6K3, PAX3 and TRIM67; the invasive state by the expression of AXL, CYR61, TCF4, LOXL2, TNC and WNT5A; and the neural crest cell-like phenotypic state by the expression of AQP1, GFRA2, L1CAM, NGFR, SLC22A17 and TMEM176B[52]. The scoring of YAP1 activation was determined from the expression of CYR61, CTGF, TEAD4, LATS2 and CRIM1. Yap scoring was obtained by averaging the fold change of each Yap1 target. The anoikis-resistance score was calculated on the basis of the expression of S100A7A, MTPN, ATP10B, S100A8, RSAD2, RENBP, CDHR1 and CD36. The ER-activation score was calculated according to the expressions of GATA4, SDK2, EGR3, IL19, GSG1L, RSPO1, PGR, IL24 and PDZK1. Expression data from human and mouse normal tissue were downloaded from the Human Protein Atlas (https://www.proteinatlas.org/) and from the EBI expression atlas (https://www.ebi.ac.uk/gxa/home), respectively, both accessed on 7 October 2022. The anatogram was generated using the gganatogram R package.
# RNA was extracted from cells and mouse tumours using the miRNeasy kit (Qiagen, 217004), according to the manufacturer’s protocol. RNA integrity (RIN) was measured using an Agilent Bioanalyser 2100 (Agilent Technologies) and an RNA nano 6000 kit (5067-1511, Agilent Technologies). Only RNA with an RNA integrity number (RIN) of more than 7 was used for analysis. This threshold led to the sequencing of 72 mouse melanoma cell lines, 36 human melanoma cell lines and 32 mouse tumours. RNA concentrations were measured using a NanoDrop (NanoDrop Technologies). […] The libraries were equimolarly pooled and subjected to qPCR quantification using the KAPA library quantification kit (Roche). Sequencing was carried out on a NovaSeq 6000 instrument (Illumina) based on a 2 × 100 cycle mode (paired-end reads, 100 bases) using an S1 flow cell to obtain approximately 35 million clusters (70 million raw paired-end reads) per sample. Reads were mapped to the mm10 mouse reference genome (gencode m13 version-GRCm38.p5) or hg38 human reference genome (gencode 42 version-GRCh38.p13) using STAR[60]. […]
# [2] = test system: mouse melanoma cell lines (1057, 1064, 1181, 1039, 1456, 1014); experiment: Matrigel invasion assay, mouse melanoma cells; assay type: cell-based; conditions: 24 h
# Experimental: Matrigel invasion assays were done in transwell plates with 8.0-µm pores (353097, Falcon) coated with 100 µl of 200 µg ml^−1 Matrigel. Depending on the experiments, cells were seeded directly or 24 h after transfection in low-serum medium (0.5% FCS for murine cells and 1% for human cell lines) with 10 nM GRP, 1 µM RC-3095, and/or 1 µM IC 182,780, or in 10% FCS. Then, 24 hours after stimulation, inserts were washed with PBS and non-invading cells were removed. Cells in the inserts were fixed in methanol at −20 °C overnight. The inserts were rinsed and the membrane carefully removed using a sharp scalpel. The membrane was mounted in prolong glass DAPI (1.5 µg ml^−1). Assays were performed in triplicate and automatic counting of invading cells was done using an Image/Fiji macro (10.5281/zenodo.14509394). Sequences of siRNAs are given in Supplementary Table 11.
# [3] = test system: human melanoma cell lines (MDA-MB-435S, 501mel); experiment: Cell growth (cell counting), human melanoma cell lines; assay type: cell-based; conditions: 48 h
# Experimental: Six-well tissue-culture plates were seeded with 3 × 10^5 melanoma cells in complete medium. After 24 h, the medium was replaced by low-serum medium (0.5% for murine melanoma cell lines and 1% for human melanoma cells) and the cells were incubated for a further 18 h before stimulation with 10 nM GRP (4011670 bachem) and/or 1 µM RC (R9653, Sigma-Aldrich) for 48 h. The plates were trypsinized just after stimulation or 48 h later and the cells were counted. For the MTT assay, 10,000 cells were seeded per well in 96-well plates. After 24 h, cells were starved overnight and then treated with 10 nM GRP and/or 1 µM RC for 48 h in low-serum medium (0.5% FBS). Next, MTT (M5655, Sigma-Aldrich) was added to the wells to a final concentration of 0.5 mg ml^−1 and the plates were incubated for 3 h. The medium was removed and formazan crystals dissolved in 200 µl DMSO. The absorbance was read at 570 nm using a LUMIstar Omega […] (BMG Labtech). All growth experiments were done using three technical replicates and three biological replicates. For the clonogenic assay, six-well tissue-culture plates were seeded with 500 cells in complete medium. After 10 days (20 days for 1181), colonies were fixed with 4% PFA for 15 min and stained with 10% crystal violet in ethanol for 20 min and counted in images using ImageJ software. Experiments were done in triplicate.
substance,measurement,setting,value
"GRP: GRPR's natural agonist, endogenous ligand of GRPR (4011670 bachem) (VPLPAGGGTVLTKMYPRGNHWAVGHLM; not fully specified; ends and bridges not checked; UniProt P07492 24-50, looked up)","GSEA YAP activation, GRP vs. Mock: NES","[1]; 1014-Ct, female Ecad, Grpr-negative, FDR 0.585",0.936
same,"GSEA YAP activation, GRP vs. Mock: NES","[1]; 1014-Grpr, female Ecad, FDR <0.0001",2.77
same,"GSEA YAP activation, GRP vs. Mock: NES","[1]; 1064-par, female ΔEcad, FDR <0.0001",2.34
same,"GSEA YAP activation, GRP vs. Mock: NES","[1]; 1181-Ct, male Ecad, Grpr-negative, FDR 0.986",0.527
same,"GSEA YAP activation, GRP vs. Mock: NES","[1]; 1181-Grpr, male Ecad, FDR 0.003",1.66
same,"invasion (number of invading cells), GRPR-positive mouse lines","[2]; 1057 (also 1064, GRPR-transduced 1014 and 1181 for RC-3095), 10 nM GRP, 1 µM RC-3095 and/or 1 µM ICI, Matrigel 200 µg ml−1, 0.5% FCS",promoted invasion
same,"invasion (number of invading cells), Grpr-negative mouse lines","[2]; 1181 male Ecad, 1039 female Ecad, 1456 male ΔEcad, 10 nM GRP and/or 1 µM ICI",but not in Ecad-positive (1181 male and 1039 female) or Ecad-negative male (1456) cells
same,"cell growth, GRPR-negative human cells","[3]; 501mel, 10 nM GRP, low serum",had no effect
same,"cell growth, GRPR-positive human line","[3]; MDA-MB-435S, 10 nM GRP and/or 1 µM RC, low serum 1%",promoted growth
